pIC50, pKi: −log10 of the molar value.
What was measured:
Histamine H1 receptor = Histamine H1 receptor (Homo sapiens, UniProt P35367); experiment: Binding affinity to histamine H1 receptor
hERG (KCNH2) = hERG (KCNH2) (Homo sapiens, UniProt Q12809); experiment: Displacement of labeled dofetilide from human ERG at 3 uM; conditions: probe labeled dofetilide
Cytochrome P450 2D6 = Cytochrome P450 2D6 (Homo sapiens, UniProt P10635)
Cytochrome P450 3A4 = Cytochrome P450 3A4 (Homo sapiens, UniProt P08684)
Sequence of Cytochrome P450 3A4 (P08684 whole entry): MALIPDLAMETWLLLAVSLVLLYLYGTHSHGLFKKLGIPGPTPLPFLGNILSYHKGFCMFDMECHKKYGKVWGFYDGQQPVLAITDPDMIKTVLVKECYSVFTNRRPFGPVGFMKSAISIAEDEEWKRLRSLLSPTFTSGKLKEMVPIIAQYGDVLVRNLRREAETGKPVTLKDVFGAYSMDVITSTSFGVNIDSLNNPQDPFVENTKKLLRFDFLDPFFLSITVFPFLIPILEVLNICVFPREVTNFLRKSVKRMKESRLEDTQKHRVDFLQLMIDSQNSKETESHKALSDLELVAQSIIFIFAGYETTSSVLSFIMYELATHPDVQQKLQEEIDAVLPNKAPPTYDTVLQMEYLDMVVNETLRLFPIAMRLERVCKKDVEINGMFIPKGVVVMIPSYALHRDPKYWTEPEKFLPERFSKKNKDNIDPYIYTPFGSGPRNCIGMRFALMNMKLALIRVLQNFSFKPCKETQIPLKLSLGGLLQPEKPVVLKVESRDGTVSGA

[1] = Drug uptake in rat brain at 1 mg/kg, iv after 4 hrs; assay type: ADME, organism-based; parameters: dose 1 mg/kg, route intravenous; conditions: read-out: Drug uptake
[2] = Ratio of drug level in brain to plasma in rat at 1 mg/kg, iv after 4 hrs; assay type: ADME, organism-based; parameters: dose 1 mg/kg, route intravenous; conditions: read-out: BPR

Sequence of Histamine H1 receptor (P35367 whole entry): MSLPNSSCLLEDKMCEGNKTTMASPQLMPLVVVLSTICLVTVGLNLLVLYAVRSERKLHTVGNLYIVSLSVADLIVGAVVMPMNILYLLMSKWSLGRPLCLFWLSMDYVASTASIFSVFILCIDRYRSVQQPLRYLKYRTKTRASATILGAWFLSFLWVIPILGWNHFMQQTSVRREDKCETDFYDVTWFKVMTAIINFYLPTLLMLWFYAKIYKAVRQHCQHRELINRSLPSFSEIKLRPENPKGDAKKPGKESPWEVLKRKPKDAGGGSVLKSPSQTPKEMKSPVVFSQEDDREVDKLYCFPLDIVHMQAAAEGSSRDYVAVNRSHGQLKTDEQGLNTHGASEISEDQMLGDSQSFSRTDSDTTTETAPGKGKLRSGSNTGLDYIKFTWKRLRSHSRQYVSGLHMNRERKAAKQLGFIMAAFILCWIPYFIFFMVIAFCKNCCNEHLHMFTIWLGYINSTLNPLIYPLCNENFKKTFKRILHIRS
Sequence of hERG (KCNH2) (Q12809 whole entry): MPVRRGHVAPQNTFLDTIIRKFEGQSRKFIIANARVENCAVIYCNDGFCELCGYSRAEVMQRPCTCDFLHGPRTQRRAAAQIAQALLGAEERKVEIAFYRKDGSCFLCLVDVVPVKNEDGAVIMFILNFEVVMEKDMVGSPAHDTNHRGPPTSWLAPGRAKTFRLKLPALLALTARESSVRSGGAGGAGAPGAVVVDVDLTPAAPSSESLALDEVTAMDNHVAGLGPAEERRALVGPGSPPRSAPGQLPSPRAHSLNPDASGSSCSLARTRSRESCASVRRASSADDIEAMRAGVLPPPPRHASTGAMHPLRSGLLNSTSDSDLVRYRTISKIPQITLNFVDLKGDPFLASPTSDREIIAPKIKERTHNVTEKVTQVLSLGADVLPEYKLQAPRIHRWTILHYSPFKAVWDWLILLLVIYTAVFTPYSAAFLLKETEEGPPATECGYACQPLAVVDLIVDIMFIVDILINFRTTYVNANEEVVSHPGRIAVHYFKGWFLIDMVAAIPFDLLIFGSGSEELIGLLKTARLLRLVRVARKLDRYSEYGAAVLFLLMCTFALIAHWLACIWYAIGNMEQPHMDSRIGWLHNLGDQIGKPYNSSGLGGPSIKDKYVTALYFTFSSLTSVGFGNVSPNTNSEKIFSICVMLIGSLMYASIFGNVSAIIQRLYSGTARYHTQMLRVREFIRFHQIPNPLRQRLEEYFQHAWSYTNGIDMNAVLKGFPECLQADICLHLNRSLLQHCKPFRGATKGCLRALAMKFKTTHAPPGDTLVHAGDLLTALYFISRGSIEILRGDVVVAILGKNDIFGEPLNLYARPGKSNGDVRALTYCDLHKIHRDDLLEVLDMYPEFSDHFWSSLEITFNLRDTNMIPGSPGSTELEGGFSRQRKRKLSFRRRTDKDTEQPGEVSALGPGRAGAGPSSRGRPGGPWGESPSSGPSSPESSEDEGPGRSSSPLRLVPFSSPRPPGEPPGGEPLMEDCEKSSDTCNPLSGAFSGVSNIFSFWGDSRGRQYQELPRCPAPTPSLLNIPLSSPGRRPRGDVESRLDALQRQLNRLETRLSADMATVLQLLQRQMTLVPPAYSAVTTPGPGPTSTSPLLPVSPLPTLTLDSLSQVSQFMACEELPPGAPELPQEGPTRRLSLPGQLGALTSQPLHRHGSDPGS
Sequence of Cytochrome P450 2D6 (P10635 whole entry): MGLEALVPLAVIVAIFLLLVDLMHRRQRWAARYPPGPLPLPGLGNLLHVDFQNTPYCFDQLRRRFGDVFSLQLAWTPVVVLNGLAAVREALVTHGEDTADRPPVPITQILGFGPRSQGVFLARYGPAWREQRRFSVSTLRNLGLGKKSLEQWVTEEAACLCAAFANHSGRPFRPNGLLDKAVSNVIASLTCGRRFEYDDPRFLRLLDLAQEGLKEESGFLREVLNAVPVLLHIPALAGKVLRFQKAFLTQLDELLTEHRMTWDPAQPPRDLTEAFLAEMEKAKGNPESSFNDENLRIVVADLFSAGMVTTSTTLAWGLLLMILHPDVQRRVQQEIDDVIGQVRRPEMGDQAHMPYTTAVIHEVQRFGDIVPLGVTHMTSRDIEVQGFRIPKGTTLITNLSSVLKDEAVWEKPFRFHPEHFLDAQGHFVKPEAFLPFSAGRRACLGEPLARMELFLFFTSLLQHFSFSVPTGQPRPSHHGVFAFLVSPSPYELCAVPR

SMILES | pKi (Histamine H1 receptor) | inhibition at 3 µM (hERG (KCNH2)) | pIC50 (Cytochrome P450 2D6) | pIC50 (Cytochrome P450 3A4) | concentration at 4 h [1] | Kp at 4 h [2]
c1ccc2c(c1)CC(CCN1CCC1)=C2Cc1cnccn1 | 8.37 | 0% | 5.05 | < 5.00 | – | –
FC1CN(CCC2=C(Cc3cnccn3)c3ccccc3C2)C1 | 7.31 | 0% | 5.19 | < 5.00 | – | –
C[C@H](C1=C(CCN(C)CC#N)Cc2ccccc21)c1cnccn1 | 7.49 | 0% | < 5.00 | < 5.00 | – | –
CN(CCF)CCC1=C(Cc2cnccn2)c2ccccc2C1 | – | 0% | 5.51 | < 5.00 | – | –
C[C@H](C1=C(CCN(C)Cc2ncc[nH]2)Cc2ccccc21)c1cnccn1 | 8.06 | 0% | 5.23 | 5.35 | – | –
CCCN(C)CCC1=C(Cc2cnccn2)c2ccccc2C1 | 7.39 | 0% | 6.01 | 5.39 | – | –
C[C@H](C1=C(CCN(C)Cc2nccs2)Cc2ccccc21)c1cnccn1 | 7.32 | 0% | < 5.00 | 5.55 | – | –
c1ccc2c(c1)CC(CCN1CCCC1)=C2Cc1cnccn1 | 8.55 | 0% | 5.47 | < 5.00 | – | –
FC1CCN(CCC2=C(Cc3cnccn3)c3ccccc3C2)C1 (stereo unspecified) | 7.98 | 0% | 5.37 | < 5.00 | 57 ng/g | 3.9
C[C@H](C1=C(CCN(C)Cc2nccn2C)Cc2ccccc21)c1cnccn1 | 7.55 | 0% | 5.25 | 5.81 | – | –
C[C@H](C1=C(CCN(C)CC2CCOCC2)Cc2ccccc21)c1cnccn1 | 7.82 | 0% | 5.03 | < 5.00 | – | –
FC1(F)CN(CCC2=C(Cc3cnccn3)c3ccccc3C2)C1 | 5.34 | 0% | < 5.00 | – | – | –
C[C@H](C1=C(CCN(C)Cc2cccs2)Cc2ccccc21)c1cnccn1 | 8.17 | 0% | 5.85 | 5.74 | – | –
C[C@H](C1=C(CCN(C)Cc2ncco2)Cc2ccccc21)c1cnccn1 | 6.79 | 0% | < 5.00 | 5.32 | – | –
C[C@H](C1=C(CCN(C)Cc2cnccn2)Cc2ccccc21)c1cnccn1 | 7.61 | 0% | < 5.00 | < 5.00 | – | –
C[C@H](C1=C(CCN(C)Cc2ccncc2)Cc2ccccc21)c1cnccn1 | 8.31 | 0% | 5.10 | – | – | –
CCN(C)CCC1=C(Cc2cnccn2)c2ccccc2C1 | 8.14 | 0% | 5.36 | < 5.00 | – | –
FC1(F)CCN(CCC2=C(Cc3cnccn3)c3ccccc3C2)C1 | 6.60 | 0% | 5.12 | 5.85 | – | –
C[C@H](C1=C(CCN(C)Cc2ccccn2)Cc2ccccc21)c1cnccn1 | 7.86 | 0% | 5.24 | 5.32 | – | –
C[C@H](C1=C(CCN(C)CCC#N)Cc2ccccc21)c1cnccn1 | 6.96 | 0% | < 5.00 | < 5.00 | – | –
C[C@H](C1=C(CCN(C)Cc2ccco2)Cc2ccccc21)c1cnccn1 | 8.09 | 0% | 5.36 | 5.56 | – | –
C[C@H](C1=C(CCN(C)CCC(F)(F)F)Cc2ccccc21)c1cnccn1 | 7.04 | 0% | 5.14 | < 5.30 | – | –
C[C@H](C1=C(CCN(C)CCF)Cc2ccccc21)c1cnccn1 | 7.89 | 0% | 5.58 | < 5.00 | – | –

— ChEMBL document CHEMBL1667811, “Influence of pKa on the biotransformation of indene H1-antihistamines by CYP2D6” (Bioorg Med Chem Lett, 2011)
